{"source": "patent US11191801B2", "about": "“Pharmaceutical composition for preventing or treating diabetic complications and angioedema, containing natural mixture extract as active ingredient” (KOREA INSTITUTE OF ORIENTAL MEDICINE, priority 2014, dated 2021)", "key": {"[1]": {"system": "advanced glycation end-products (AGEs)", "assay": "Inhibition of producing advanced glycation end-products (AGEs) in vitro (BSA with fructose/glucose, fluorescence)", "type": "biochemical", "conditions": "BSA 10 mg/mL, 0.2 M fructose and 0.2 M glucose, 37° C., seven days", "procedure": "Specifically, 10 mg/mL of bovine serum albumin (BSA, Sigma, USA) dissolved in 50 mM phosphate buffer (pH 7.4) was used as a protein source, and the solution mixed with 0.2 M fructose and 0.2 M glucose was used as a sugar source. The extracts of Examples and aminoguanidine (positive control group) were dissolved in 0.2% dimethylsulfoxide (DMSO), followed by dissolving again in 15% tween 80. The thus-prepared protein source, sugar source, and extracts were mixed, prepared at 1 mL in total, cultured at 37° C. for seven days, and allowed to undergo glycation. Herein, 0.02% sodium azide, an antibacterial agent, was added to prevent bacterial production. After cultivation, the fluorescence was measured at an absorption wavelength of 350 nm and an emission wavelength of 450 nm using a spectrofluorometric detector (Bio-TEK, USA)."}, "[2]": {"target": "T1, cross-link between AGE-BSA and collagen (Bos taurus, UniProt P02769)", "T1 construct": "purchased Transgenic Inc. Kobe, Japan (AGE-BSA); Greiner Bio-One, Germany (collagen-coated plate)", "T1 sequence (P02769 25-607)": "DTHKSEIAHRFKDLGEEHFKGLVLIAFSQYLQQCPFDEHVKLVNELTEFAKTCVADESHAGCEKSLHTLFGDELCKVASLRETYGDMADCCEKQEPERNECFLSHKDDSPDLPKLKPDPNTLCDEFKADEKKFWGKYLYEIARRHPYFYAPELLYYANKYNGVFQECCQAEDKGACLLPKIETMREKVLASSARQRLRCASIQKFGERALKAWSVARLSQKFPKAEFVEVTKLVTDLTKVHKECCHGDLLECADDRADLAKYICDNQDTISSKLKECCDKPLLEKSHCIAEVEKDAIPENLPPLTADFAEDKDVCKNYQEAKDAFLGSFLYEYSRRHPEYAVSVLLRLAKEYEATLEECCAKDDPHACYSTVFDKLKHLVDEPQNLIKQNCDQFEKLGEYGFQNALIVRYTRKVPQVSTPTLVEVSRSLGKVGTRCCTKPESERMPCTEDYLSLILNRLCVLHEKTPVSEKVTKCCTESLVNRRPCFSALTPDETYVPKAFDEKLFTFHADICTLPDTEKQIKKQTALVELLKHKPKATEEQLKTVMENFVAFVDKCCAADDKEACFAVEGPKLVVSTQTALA", "assay": "Fragmentizing cross-link of advanced glycation end-products (AGE-BSA/collagen ELISA)", "type": "biochemical", "conditions": "AGE-BSA cross-linked to collagen, 37° C., four hours", "procedure": "Specifically, 1.0 μg of AGE-BSA (Transgenic Inc. Kobe, Japan) was dispensed into a collagen-coated 96-well microtiter plate (Greiner Bio-One, Germany) and cultured at 37° C. for four hours, and then the AGE-BSA and collagen were allowed to cross-link. After washing the resultant three times with PBST (0.05%) to remove AGE-BSA not linked, a mixed extract and ALT-711 were added, and cultured at 37° C. for four hours. Thereafter, the resultant was washed with PBST (0.05%), and in order to detect the AGE-BSA remaining due to the cross-link to collagen, mouse monoclonal anti-AGE-BSA antibodies (6D12, Transgenic Inc. Kobe, Japan) were diluted at 1:250 and dispensed, followed by cultivation at 37° C. for one hour. After one hour, the resultant was washed with PBST (0.05%) and reacted with HRP-linked goat anti-mouse IgG antibodies (Santa Cruz, USA) to develop TMB (3.3′,5,5′-tetramethylbenzidine) as a substrate. Thereafter, absorbance was measured at 450 nm. The cross-link fragmentation effect (%) of AGE-BSA was calculated as shown in the following Equation 2."}, "claudin-5 and occludin": {"system": "claudin-5 and occludin", "assay": "Therapeutic model with metformin co-administration: damage to tight-junction proteins", "type": "in vivo, mice", "conditions": "metformin 350 mg/kg/day alone", "procedure": "In addition, the resultant was dehydrated and substituted three times with xylene, thereby embedding the same with paraffin. Blocks of the embedded tissue were prepared as serial sections in a thickness of 4 μm, and placed on slides for use. In order to remove an endogenous peroxidase activity, a slide which underwent deparaffinization and function processes was allowed to react with 3% hydrogen peroxide solution for 10 minutes, and then washed three times with PBS containing 0.05% tween 20. […] Thereafter, the diluted primary antibodies were treated for one hour or overnight. After washing with PBS for one hour, a labeled streptoavidin biotin (LSAB) kit (Dako, USA) was applied to the resultants, developed with DAB, and then observed using an optical microscope. […] Thereafter, the resultants were stained with DAPI and observed using a fluorescence microscope."}, "db/db mice [3]": {"system": "db/db mice", "assay": "Therapeutic model with metformin co-administration: formation of acellular capillaries", "type": "in vivo", "conditions": "metformin 350 mg/kg/day alone", "procedure": "Specifically, eyeballs were enucleated from mice in the same manner as Experimental Example 6-2, and retinas were enucleated from the eyeballs and washed with running water. Thereafter, they were placed in 3% trypsin and cultured at 37° C. for one hour. The digested retinas were transferred to PBS, and the internal membrane (membrane of organelle present in cells) was removed. The vascular frame was separated from the retinal background using a glass rod, placed on a slide, and dried. The dried vascular frame was then stained with PAS and hematoxylin, and variations in cell walls and nuclei were confirmed."}, "db/db mice [4]": {"system": "db/db mice", "assay": "Therapeutic model with metformin co-administration: damage to blood-retinal barrier", "type": "in vivo", "conditions": "metformin 350 mg/kg/day alone", "procedure": "In addition, 50 mg/mL of fluorescein-dextran (2×10^6 molecular weight) which was prepared by dissolving in sterilized PBS (1 mL) was injected into the left ventricle. After 10 minutes, the eyeballs were enucleated, and the left eyeball was placed in an eyecup. The separated retina was placed on a slide, and then mounted using aqueous mounting medium. After this was sufficiently dried, a fluorescence microscope was used to observe the same. The results were confirmed at 12 weeks, 18 weeks, and 24 weeks of inducing diabetes, respectively."}, "MNU-induced C57BL/6 mice": {"system": "MNU-induced C57BL/6 mice", "assay": "MNU-induced macular degeneration model, extracts versus paeoniflorin: thickness of outer nuclear layers", "type": "in vivo", "conditions": "for Thickness of outer nuclear layer (AU): orally", "procedure": "6-week-old male C57BL/6 mice were used after purification thereof for one week. In order to induce damage and denaturation of photoreceptor cells, among morphological changes of retinal tissues which appeared in macular degeneration, 1% (0.05% acetic acid) N-methyl-N-nitrosourea (MNU, Sigma, USA) was intraperitoneally injected to the 7-week-old male C57BL/6 mice at a concentration of 60 mg/kg. The same amount of 0.05% acetic acid was intraperitoneally administered to the normal group. As the samples, CMO4 (100 mg/kg), which is the extract of cinnamon twig and moutan root bark (1:8), and CPA4 (100 mg/kg), which is the extract of cinnamon twig and peony root (1:8), paeoniflorin −2.7 (2.7 mg/kg), and paeoniflorin −12.3 (12.3 mg/kg) were suspended and prepared in 0.5% CMC and administered orally once before the MNU administration day. After administration of MNU, these resultants were orally administered once a day for seven days, respectively. In the normal and MNU-induced groups, the same amount of 0.5% CMC was orally administered.\nChange in a thickness of outer nuclear layers caused by damage to photoreceptor cells in retinal nerve tissues was confirmed.\nSpecifically, experimental groups in which the samples were treated in the same manner as Experimental Example 8-1 were autopsied after the administration, and eyeballs were enucleated. Thereafter, the enucleated eyeballs were fixed in 10% neutralized formalin for one day, and embedded with paraffin to prepare slide sections. The slide sections were stained with H&E and observed under an optical microscope."}, "[5]": {"system": "human retinal pigment epithelial cell line (ARPE-19)", "conditions": "Molecular Vision 2011; 17: 3512-3522; cited from earlier work"}}, "note": "“And” between values parts separate entries of the source, which are not always exact repeats. Equal entries are not always repeated.", "data": [{"molecule": "N=C(N)NN", "note": "[AG, aminoguanidine]", "values": [{"measurement": "IC50 (μg/mL), inhibition of production of advanced glycation end-products", "setting": "[1]", "result": "82.50 ± 1.10", "unit": "µg/mL"}]}, {"molecule": "Cc1sc[n+](CC(=O)c2ccccc2)c1C.[Cl-]", "note": "[ALT-711]", "values": [{"measurement": "IC50 (μg/mL), cross-link fragmentation effect of AGE-BSA", "setting": "[2]", "result": "17,060 ± 2.35 μg/mL"}]}, {"molecule": "CN(C)C(=N)N=C(N)N", "note": "[metformin]", "values": [{"measurement": "amount of occludin (western blot)", "setting": "claudin-5 and occludin", "result": "no significant increase"}, {"measurement": "claudin-5 loss (staining)", "setting": "claudin-5 and occludin", "result": "snapped in various regions of blood vessels"}, {"measurement": "formation of acellular capillaries", "setting": "db/db mice [3]", "result": "could not prevent the proliferation"}, {"measurement": "outflow of fluorescent substances", "setting": "db/db mice [4]; at 18 weeks", "result": "significantly reduced"}, {"measurement": "outflow of fluorescent substances", "setting": "db/db mice [4]; at 24 weeks", "result": "not prevented"}]}, {"molecule": "C[C@@]12C[C@@]3(O)O[C@@H](O1)[C@]1(COC(=O)c4ccccc4)[C@H]3C[C@@]12O[C@@H]1O[C@H](CO)[C@@H](O)[C@H](O)[C@H]1O", "note": "[paeoniflorin]", "values": [{"measurement": "Thickness of outer nuclear layer (AU)", "setting": "MNU-induced C57BL/6 mice; Table 4: CMO4 100 mg/kg, paeoniflorin 2.7 mg/kg, NOR 1.99, MNU 1.23, listed as PF-2.7", "result": "1.23±0.21", "unit": "AU"}, {"measurement": "Thickness of outer nuclear layer (AU)", "setting": "MNU-induced C57BL/6 mice; Table 5: CPA4 100 mg/kg, paeoniflorin 12.4 mg/kg, NOR 1.99, MNU 0.92, listed as PF-12.4", "result": "1.11±0.19", "unit": "AU"}, {"measurement": "Thickness of outer nuclear layer (%)", "setting": "MNU-induced C57BL/6 mice; Table 5: CPA4 100 mg/kg, paeoniflorin 12.4 mg/kg, NOR = 100, MNU = 0.57, listed as PF-12.4", "result": "17.5% and 17.46 ± 17.39%"}, {"measurement": "apoptosis caused by H2O2", "setting": "[5]", "result": "inhibitory effect on apoptosis"}]}]}
